Data: patent publication US20110046378A1, “Novel Imaging Agents for Detecting Neurological Dysfunction” (SIEMENS MEDICAL SOLUTIONS USA, INC., priority 2008, published 2011)
Like-named read-outs stand apart in the source and are kept apart here.

Assays:
Aβ 1-42 aggregates = biological target: T1, Aβ 1-42 aggregates (Homo sapiens, UniProt P05067); conditions: read-out: Binding Affinity Ki; cited from earlier work
T1 construct: Aβ 1-42 aggregates

[1] = system: Amyloid (AD patient's brain slice); experiment: Amyloid autoradiography staining of AD patient's brain slices, grey/white matter binding with wash protocols; design: species or system human; conditions: for Grey/white matter binding ratio using mild wash conditions: 30%/40%/20% EtOH:water; for order of (non-specific) white matter binding: AD brain slices; for amyloid autoradiography staining (ex vivo), qualitative: AD patient's brain / normal brain; for grey to white matter binding ratio: human AD brain slices, EtOH:water washes
Description: (§1) Ex Vivo Competition Assay Using Amyloid (AD patient's brain slice) Autoradiography Staining
A study was conducted to examine the grey to white matter binding ratios for 4 different tracers: CB-001, CB-003, FDDNP and F-PiB (FIG. 7 and FIG. 8). […] After the human brain slices from AD patients were incubated with a given tracer for 30 min, the slices were washed with various EtOH:water solutions in an attempt to optimize the grey-to white matter ratios (FIG. 9). The results were surprising and unexpected in view of previous work performed by other researchers. CB-001 has a slightly higher c Log P than FDDNP (3.8 vs 3.4) and would be expected to have poorer washout than FDDNP based on these values. […] More specifically, the white matter binding of FDDNP is several shades darker than CB-001's white matter binding, indicating low non-specific binding of CB-001.

[2] = MicroPET dynamic scan of rat brain after tail vein injection; type: in vivo, white Sprague-Dawley rat; conditions: 30 min dynamic scan
Description: A white Sprague-Dawley rat was injected via tail vein with ˜850 uCi AD-CB-001, formulated in 10% EtOH:water. A dynamic scan was conducted for 30 min on a R4 microPET scanner. The data was reconstructed using 1 min framing.

[3] = MicroPET imaging in WT and App mice; type: in vivo; conditions: for brain clearance / washout rate: WT and App mice brain, compared with [18F]PiB
[4] = biological target: T2, Amyloid (AD patient's brain slice) (Homo sapiens, UniProt P05067); experiment: IC50 determination with [18F]-PiB by ex vivo competition assay using autoradiography staining; type: binding; conditions: for blocking of [18F]-PiB tissue binding, qualitative: human AD brains
T2 construct: The brain slices were 20 um thick
Text: as §1

[5] = system: Amyloid (AD brain slices); experiment: [18F]-CB001 competition studies on AD brain slices; type: binding, human
Aβ fibrils = conditions: read-out: Binding Affinity Ki; cited from earlier work
Aβ42 soluble aggregates = Aβ42 soluble aggregates (Homo sapiens, UniProt P05067); experiment: Surface plasmon resonance (Biacore) assay, Aβ42 soluble aggregates; conditions: SPR; read-out: binding to soluble aggregates
[6] = biological target: Aβ42 insoluble aggregates (Homo sapiens, UniProt P05067); experiment: Surface plasmon resonance (Biacore) assay, Aβ42 insoluble aggregates; conditions: SPR; read-out: binding to insoluble aggregates
[7] = 30 min incubation, PBS, PBS, 20 um AD brain slices
[8] = determination 1, vs [18F]-PiB, read-out: IC50 1
[9] = mean of determinations, vs [18F]-PiB, read-out: Average IC50

T2 sequence (P05067 672-711 limits assumed): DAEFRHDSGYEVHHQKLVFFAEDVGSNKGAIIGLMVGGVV
T1 sequence (P05067 672-713 limits assumed): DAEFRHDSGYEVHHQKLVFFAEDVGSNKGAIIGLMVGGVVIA
Sequence of Aβ42 soluble aggregates (P05067 672-713 limits assumed): as above
Sequence of Aβ42 insoluble aggregates (P05067 672-713 limits assumed): as above

CNc1ccc(/C=C2\Oc3ccc([125I])cc3C2=O)cc1 [Aurones]
Ki (Aβ 1-42 aggregates): 1.24 nM

FCCOc1ccc2c(c1)[nH]c1ccccc12 [CB-001, 2-(2-fluoroethoxy)-9H-carbazole]
Grey/white matter binding ratio using mild wash conditions [1, 7]: Poor | Grey/white matter binding ratio using harsh FDDNP wash conditions ([1]; 30 min incubation, PBS, 70%/90%/70% EtOH:water, PBS, 20 um AD brain slices): Excellent | order of (non-specific) white matter binding [1]: FDDNP>CB001>[18F]-PiB>CB003 | amyloid autoradiography staining (ex vivo), qualitative [1]: good amyloid binding and little/no white matter binding | grey to white matter binding ratio ([1]; 30 min incubation): much better grey to white matter ratio compared to FDDNP | brain entry and washout, qualitative [2]: Within minutes, the tracer entered the rat brain and quickly washed out | brain uptake, qualitative ([3]; App and WT mice, microPET): very good brain uptake | IC50 [4, 8]: 1000 nM | IC50 ([4]; determination 2, vs [18F]-PiB, read-out: IC50 2): 480 nM | IC50 [4, 9]: 740 nM | plaque binding of the tracer in competition studies ([5]; AD brain slices): reversible plaque binding and competition with PiB, and little/no white matter binding | blocking of [18F]-CB001 staining ([5]; cold competitor, increasing concentrations): PiB appears to block tracer binding with the same strength as cold CB001

CNc1ccc(-c2nc3ccc(O)cc3s2)cc1 [PiB, reference compound]
Ki (Aβ fibrils): 2.8 nM

FCCOCCOCCOc1ccc2c(c1)[nH]c1ccccc12 [CB-003, 2-(2-(2-(2-fluoroethoxy)ethoxy)ethoxy)-9H-carbazole]
Grey/white matter binding ratio using mild wash conditions [1, 7]: Excellent | order of (non-specific) white matter binding [1]: FDDNP>CB001>[18F]-PiB>CB003 | amyloid autoradiography staining (ex vivo), qualitative [1]: amyloid deposits were clearly visible in the grey matter with little white matter uptake | amyloid autoradiography staining (ex vivo), qualitative ([1]; listed as [18F]-CB003): clearly distinguishes between Alzheimer's and normal brains | grey to white matter binding ratio ([1]; 30 min incubation): excellent grey to white matter binding ratios | Kd (Aβ42 soluble aggregates): 262 nM | Kd [6]: 9 nM | brain clearance / washout rate [3]: faster washout rate than 18F-PiB | brain clearance / washout rate ([3]; listed as [18F]-CB003): much faster than with [18F]PiB | larger brain/muscle ratio of App mice compared to WT mice ([3]; microPET): up to 25% | IC50 [4, 8]: 1100 nM | IC50 ([4]; determination 6, vs [18F]-PiB, read-out: IC50 6): 900 nM | IC50 ([4]; determination 13, vs [18F]-PiB, read-out: IC50 13): 920 nM | blocking of [18F]-PiB tissue binding, qualitative [4]: still competes with 18F-PiB for binding sites in human AD brains | blocking of [18F]-PiB tissue binding, qualitative ([4]; listed as CB003): concentration-dependent blocking of [18F]-PiB tissue binding | IC50 [4, 9]: 973 nM
